According to patent US5348980A, “Enantiomers derived from (S)-2-amino-2-(3,4-dichlorobenzyl)-1-propanol, their use and method of preparation” (Institute de Recherche Jouveinal, priority 1992, dated 1994):
Structures can show the parent of a compound that is named as a salt.

Tests used:
Type in all cases: in vivo, guinea pigs
[1] = system: bronchoconstriction caused by 100 μmol/kg of histamine; assay: Histamine-induced bronchoconstriction test (Konzett and Rossler), i.v. administration; conditions: for ED50: Cavia porcellus, iv
From the text: (§1) Furthermore, the antihistaminic properties were studied in guinea pigs by the bronchoconstriction test performed according to the method of H. Konzett and R. Rossler (Arch. Exp. Path. Pharmak.--Naunym Schmiedeberg - 195, 71-74, 1940).
(§2) The products of the invention were studied in this test after administration in solution or in suspension via the intravenous and intraduodenal routes, and also in powder form via the intranasal route.
(§3) Irrespective of the administration route, the preparation of the animals employed in the test consists in first anesthetizing male guinea pigs weighing 350 to 400 g by intraperitoneal (i.p.) injection of a sterile and isotonic solution containing 25% (w/v.) of ethyl carbamate on the basis of 6.0 ml/kg, and in then fitting the animals with a tracheal cannula to permit measurement of the pulmonary pressure, a cannula in the right jugular vein for the intravenous (i.v.) administration of solution, and also a cannula in the left carotid artery for qualitative observation of the blood pressure.
(§4) The animals are then connected to a pump (Harvard, ref. 50-1718) in order to maintain an artificial ventilation at a frequency of 60 insufflations per minute; the intratracheal pressure is recorded by an assembly comprising a transducer, an amplifier and a recorder (Gould, respective refs.: PLOEZ, 13-4615-50 and 8188-G4400-06).
(§5) Fitted in this way, the animals are left undisturbed for 10 minutes before the beginning of the actual experiment, which is carried out in different ways according to the administration route envisaged.
(§6) In base form, the test products are dissolved in an isotonic solution (0.9% NaCl) containing 10% (v/v) of Transcutol (R). Dilutions are performed by adding isotonic solution. In salt, in particular hydrochloride, form, the solutions are prepared in the isotonic solution.
(§7) The treatment of the animals consists of a series of administrations of histamine dihydrochloride solution on the basis of 100 μmol/kg before and after treatment with the solution of test product, which is carried out according to the following time schedule:
(§8) t=-20 minutes - histamine (100 μmol/kg)
(§9) t=-10 minutes - ditto control
(§10) t=0 - injection of the test product
(§11) t=+10 minutes - histamine (100 μmol/kg)
(§12) - Calculation and expression of the results:
(§13) For each administration route and for each time of administration of histamine, the activity of the products is expressed as the percentage change in amplitude of bronchoconstriction, calculated relative to that produced by the "control" administration of histamine which precedes the administration of the test product. The % change is calculated according to the formula: [formula] in which: Bc(tx) represents the amplitude of the bronchoconstriction in mm at time x,
(§14) Bo(tx) the amplitude of the base-line respiration in mm at time x,
(§15) Bc(to) and Bo(to) the corresponding amplitudes in mm on receipt of the "control" administration of histamine which precedes that of the test product.
(§16) The inhibitory activity of the test products on histamine-induced bronchoconstriction is expressed at different times of the studies as their ED50, which is the effective dose of product, expressed in μmol/kg, capable of inhibiting 50% of the histamine-induced bronchoconstriction at the time in question.
(§17) Failing this expression, the results are expressed as a % change at the time in question and for a given concentration of the test product. Under these conditions, a positive percentage corresponds to a potentiating effect on bronchoconstriction and, conversely, a negative percentage to an inhibitory effect.
(§18) Statistical analyses of the results were carried out by the Student t test. A value of p<0.05 is considered significant.
(§19) The compounds of the invention described in Examples 1 and 2 were employed in these tests. In addition, as a comparative product for the eutomer of Example 1, the racemic (R,S) compound corresponding to it, and which is described and prepared in Example 7 of U.S. Pat. No. 4,994,617, was employed. […]

[2] = system: bronchoconstriction caused by 100 μmol/kg of histamine; assay: Histamine-induced bronchoconstriction test (Konzett and Rossler), intraduodenal (i.d.) administration; conditions: for ED50: Cavia porcellus
From the text: as §1, §2, §3, §4, §5
In base form, the test products are suspended in a solution containing 1% w/v of carboxymethylcellulose (CMC), and, in salt form, they are dissolved in an isotonic solution before being administered via a cannula whose end is placed in the animal's duodenum.
The time schedule for the successive administrations of histamine via the i.v. route and that for the test solution via the i.d. route are identical to that described above in a).
as §12, §13, §14, §15, §16, §17, §18, §19

[3] = system: bronchoconstriction caused by 100 nmol/kg of histamine; assay: Histamine-induced bronchoconstriction test (Konzett and Rossler), intranasal-powder (In.P.) administration; conditions: Cavia porcellus, 5 min, t = 5 min, read-out: ED50 at t = 5 min, inhibition of histamine-induced bronchoconstriction
From the text: Furthermore, the antihistaminic properties were studied in guinea pigs by the bronchoconstriction test performed according to the method of H. Konzett and R. Rossler (Arch. Exp. Path. Pharmak.--Naunym Schmiedeberg - 195, 71-74, 1940). The products of the invention were studied in this test after administration in solution or in suspension via the intravenous and intraduodenal routes, and also in powder form via the intranasal route. Irrespective of the administration route, the preparation of the animals employed in the test consists in first anesthetizing male guinea pigs weighing 350 to 400 g by intraperitoneal (i.p.) injection of a sterile and isotonic solution containing 25% (w/v.) of ethyl carbamate on the basis of 6.0 ml/kg, and in then fitting the animals with a tracheal cannula to permit measurement of the pulmonary pressure, a cannula in the right jugular vein for the intravenous (i.v.) administration of solution, and also a cannula in the left carotid artery for qualitative observation of the blood pressure. The animals are then connected to a pump (Harvard, ref. 50-1718) in order to maintain an artificial ventilation at a frequency of 60 insufflations per minute; the intratracheal pressure is recorded by an assembly comprising a transducer, an amplifier and a recorder (Gould, respective refs.: PLOEZ, 13-4615-50 and 8188-[…]-06). Fitted in this way, the animals are left undisturbed for 10 minutes before the beginning of the actual experiment, which is carried out in different ways according to the administration route envisaged. c) intranasal-powder (In.p) administration The test product is administered via a nasal insufflation of a powder consisting of 20 mg of lactose loaded with the appropriate quantity of the test product. Before this insufflation, the artificial ventilation of the animal is momentarily stopped in order to facilitate the pulmonary penetration of the compound. […] Failing this expression, the results are expressed as a % change at the time in question and for a given concentration of the test product. […]

[4] = system: bronchoconstriction caused by histamine; assay: Histamine-induced bronchoconstriction test (Konzett and Rossler), i.v. administration; conditions: 3.5 μmol/kg, t = 10', statistically nonsignificant
From the text: as §1, §2, §3, §4, §5, §6, §7, §8, §9, §10, §11, §12, §13, §14, §15, §16, §17, §18, §19

[5] = 10 min, t = 10', read-out: ED50, inhibition of histamine-induced bronchoconstriction, t = 10'
[6] = 20 min, t = 20', read-out: ED50, inhibition of histamine-induced bronchoconstriction, t = 20'
[7] = 0.5 h, t = 30', read-out: ED50, inhibition of histamine-induced bronchoconstriction, t = 30'
[8] = 40 min, t = 40', read-out: ED50, inhibition of histamine-induced bronchoconstriction, t = 40'
[9] = 50 min, t = 50', read-out: ED50, inhibition of histamine-induced bronchoconstriction, t = 50'
[10] = 1 h, t = 60', read-out: ED50, inhibition of histamine-induced bronchoconstriction, t = 60'
[11] = 3.5 μmol/kg, t = 20', statistically nonsignificant
[12] = 3.5 μmol/kg, t = 30', statistically nonsignificant
[13] = 3.5 μmol/kg, t = 40', statistically nonsignificant
[14] = 3.5 μmol/kg, t = 50', statistically nonsignificant
[15] = 3.5 μmol/kg, t = 60', statistically nonsignificant

Compound	ED50 [1, 5] [µmol/kg]	ED50 [1, 6] [µmol/kg]	ED50 [1, 7] [µmol/kg]	ED50 [1, 8] [µmol/kg]	ED50 [1, 9] [µmol/kg]	ED50 [1, 10] [µmol/kg]	further results
O=C1NCC2(CCN(CCc3ccccc3)CC2)O1 [Fenspiride (INN). HCl]	4.25	4.99	6.26	8.9	8.01	11	–
C=CCN[C@](C)(CO)Cc1ccc(Cl)c(Cl)c1 [Example 1, (S)-(-)-N-allyl-2-amino-2-(3,4-dichlorobenzyl)-1-propanol]	4.89	2.88	2.54	2.58	3.17	3.55	ED50 [2, 6]: 1 µmol/kg; ED50 [2, 7]: 0.78 µmol/kg; ED50 [2, 8]: 0.69 µmol/kg; ED50 [2, 9]: 1.28 µmol/kg; ED50 [2, 10]: 2.17 µmol/kg
C=CCNC(C)(CO)Cc1ccc(Cl)c(Cl)c1 (racemic) [Comparative racemate]	6.65	4.1	4.38	3.39	3.02	3.52	–
CC1(C)Oc2ccc(C#N)cc2[C@H](N2CCCC2=O)[C@H]1O (relative stereo) [Cromakalim (INN), reference compound]	–	–	–	–	–	–	ED50 [3]: 1.88 µmol/kg
C=CCN(C)[C@@](C)(CO)Cc1ccc(Cl)c(Cl)c1 [Comparative distomer, (R)-(-)-N-allyl-2-methylamino-2-(3,4-dichlorobenzyl)-1-propanol, reference compound]	–	–	–	–	–	–	effect on histamine activity (in words) [1]: perceptibly though not significantly in statistical terms, a potentiating effect on histamine activity; % potentiating effect on bronchoconstriction, t = 20' [1, 11]: +18.4%; % potentiating effect on bronchoconstriction, t = 30' [1, 12]: +28.2%; % potentiating effect on bronchoconstriction, t = 40' [1, 13]: +35.4%; % potentiating effect on bronchoconstriction, t = 50' [1, 14]: +36.7%; % potentiating effect on bronchoconstriction, t = 60' [1, 15]: +41.1%; % potentiating effect on bronchoconstriction, t = 10' [4]: +6.3%; effect on histamine activity (in words) [2]: perceptibly though not significantly in statistical terms, a potentiating effect on histamine activity; % potentiating effect on bronchoconstriction, t = 10' ([2]; 3.5 μmol/kg, t = 10', statistically nonsignificant): +5.8%; % potentiating effect on bronchoconstriction, t = 20' [2, 11]: +14.6%; % potentiating effect on bronchoconstriction, t = 30' [2, 12]: +32.4%; % potentiating effect on bronchoconstriction, t = 40' [2, 13]: +44.5%; % potentiating effect on bronchoconstriction, t = 50' [2, 14]: +35.6%; % potentiating effect on bronchoconstriction, t = 60' [2, 15]: +30.0%
C=CCN(C)C(C)(CO)Cc1ccc(Cl)c(Cl)c1 (racemic) [Comparative racemate. HCl]	3.72	2.11	1.88	2.07	2.34	2.22	–
